{"source": "patent US5621102A", "about": "“Process for preparing enantiomerically pure xanthine derivatives” (Cell Therapeutics, Inc., priority 1995, dated 1997)", "key": {"smooth muscle cells": {"test_system": "smooth muscle cells", "assay": "smooth muscle proliferation stimulated by PDGF and IL-1", "format": "cell-based", "excerpt": "CT1501R and PTX were separately added to the cells two hours prior to activation with PDGF and IL-1."}, "[1]": {"test_system": "PBMC (peripheral blood mononuclear cells)", "assay": "two-way mixed lymphocyte reaction (MLR)", "format": "cell-based, human", "excerpt": "Various in vitro assays can be used to measure effects of the inventive compounds to module immune activity and have antitumor activity using a variety of cellular types. For example, a mixed lymphocyte reaction (MLR) provides a valuable screening tool to determine biological activity of each inventive compound. In the MLR, PBMCs (peripheral blood mononuclear cells) are obtained by drawing whole blood from healthy volunteers in a heparinized container and diluted with an equal volume of hanks balanced salt solution (HBSS). This mixture is layered on a sucrose density gradient, such as a Ficoll-Hypaque® gradient (specific gravity 1.08), and centrifuged at 1000×g for 25 minutes at room temperature or cooler. PBMC are obtained from a band at a plasma-Ficoll interface, separated and washed at least twice in a saline solution, such as HBSS. Contaminating red cells are lysed, such as by ACK lysis for 10 min at 37° C., and the PBMCs are washed twice in HBSS. The pellet of purified PBMCs is resuspended in complete medium, such as RPMI 1640 plus 20% human inactivated serum. Proliferative response of PBMC to allogeneic stimulation is determined in a two-way MLR performed in a 96-well microliter plate. […] At the conclusion of the incubation tritiated thymidine is added (for example, 1 μCi/well of 40 to 60 Ci/mmole) and proliferation determined by liquid scintillation counting. […]"}, "[2]": {"test_system": "lysophosphatidic acid acyl transferase (LPAAT)", "assay": "in vitro inhibition of LPAAT in 3T3 Ras-transformed fibroblasts stimulated with IL-1β", "format": "cell-based", "description": "FIG. 17 illustrates a comparison of CT1501R, its S isomer CT1501S, and PTX on in vitro inhibition of lysophosphatidic acid acyl transferase (LPAAT), an enzyme involved in second messenger signaling. […] LPAAT activity was determined in 3T3 Ras-transformed fibroblasts stimulated with IL-1β.\nA method described here permits differentiation of the various subspecies of PA and DAG based upon acyl chain composition. This can differentiate those compounds that activate (and inhibit activation of) the present second messenger pathway from other pathways, such as the classical PI pathway. The present second messenger pathway involves substrates with unsaturated fatty acids in the sn-2 position other than arachidonate and those sub species of PAPH and LPAAT that are not involved in normal cellular housekeeping functions that are part of the classical PI pathway. […]\nOne in vitro assay measures inhibition of the relevant enzymes lysophosphatidic acid acyltransferase (LPAAT) and phosphatidic acid phosphoryl hydrolase (PAPH). […] It is important to note that the assay method permits discrimination between various forms of PA and DAG so that those relevant to the pathway affected by the (R) or (S) compounds of the invention can be measured directly. […] Thus, the relevant unsaturated (non-arachidonic) PA and DAG subspecies may be detected. […]"}}}
{"compound": "C[C@@H](O)CCCCn1c(=O)c2c(ncn2C)n(C)c1=O", "note": "[CT1501R, (R)-1-(5-hydroxyhexyl)-3,7-dimethylxanthine]", "values": [{"measurement": "activity compared with PTX, smooth muscle cell proliferation", "setting": "smooth muscle cells", "value": "more active than PTX"}, {"measurement": "inhibition of smooth muscle cell proliferation", "setting": "smooth muscle cells; drug added two hours prior to activation", "value": "inhibited smooth muscle cell proliferation at the higher doses tested"}, {"measurement": "proliferative response of PBMC to allogeneic stimulation", "setting": "[1]", "value": "showed dose-response activity"}, {"measurement": "potency relative to racemic mixture (M1)", "setting": "[2]", "value": "two to three time more potent than the racemic mixture"}, {"measurement": "inhibition of LPAAT enzyme activity", "setting": "[2]; 3T3 Ras-transformed fibroblasts stimulated with IL-1β, at IC50 concentrations achievable in a clinical setting", "value": "significantly inhibited enzyme activity"}]}
